PMC12281424, “A Rac-specific competitive inhibitor of guanine nucleotide binding reduces metastasis in triple-negative breast cancer” (Cell Reports Medicine, 2025)

Legend:
[1] = tested on: RAC1-dependent membrane ruffle formation in NIH 3T3 cells; assay: EGF-induced membrane ruffle formation; assay type: cell-based
Procedure: Figure 2 Identification of a new RAC1 inhibitor (A) Effect of A41 and NSC23766 on ruffle formation (white arrows) induced by EGF (10 ng/mL) in NIH 3T3 cells in serum-free culture medium (CTL). Inhibitors were added at indicated concentration 1 h prior to EGF stimulation. To assess cytoskeleton organization, cells were incubated with Alexa Fluor 488 phalloidin to visualize F-actin. Results shown are representative of 3 independent experiments. Corresponding concentration-response curves have been established by counting the percentages of cells with ruffles (scale bars: 10 μm). (B) Immunoblot analysis and associated quantification of RAC-GTP level and total RAC expression in NIH 3T3 cells stimulated by EGF (10 ng/mL, 5 min) and pre-incubated or not (−) with NSC23766, A41, or A415 at 10^−5 M for 1 h (∗∗∗p < 0.001 vs. controls without EGF stimulation, ^###p < 0.001 vs. controls with EGF stimulation) (N > 3). […] (D) Representative in vitro nucleotide exchange catalyzed by the DH-PH of TIAM (10 nM) measured by the binding of fluorescent mant-GTP (1 μM) to RAC1 (0.5 μM, preloaded with GDP) in the presence of indicated concentrations of A41 (out of N = 6). […] (E) Kobs and Kmax were determined in each condition (N = 6). […]
After indicated treatments, cells were fixed with 4% paraformaldehyde and permeabilized in PBS 0.5% Triton X-100. […] Cancer cells were detected with firefly luciferase antibody (ab21176, Abcam) (dilution 1/500) overnight at room temperature, followed by secondary Alexa 488-labeled anti-rabbit antibody (dilution 1/1000). […] After staining, cells were mounted in Prolong gold antifade reagent with DAPI and images were captured by a fluorescence microscope. […]
Supp. […] For each molecule, druglikeness has been assessed according to Lipinski’s rules: molecular weight (MW)<500; high lipophilicity (LogP<5); less than 5 hydrogen bond donors (HBD); less than 10 hydrogen bond acceptors (HBA). The log P was calculated by using OSIRIS – Data Warrior software. […] IC50 was determined experimentally from the inhibition

RAC1 = target: T1, RAC1 (Mus musculus, UniProt P63001); assay: RAC-GTP pull-down assay, EGF-stimulated NIH/3T3 fibroblasts; assay type: cell-based; conditions: 10^-5 M, 1 h, EGF 10 ng/mL 5 min
T1 construct: endogenous in cells; host or cells: NIH/3T3 fibroblasts (ATCC CRL-1658), EGF-stimulated
Procedure: Figure 2 Identification of a new RAC1 inhibitor (A) Effect of A41 and NSC23766 on ruffle formation (white arrows) induced by EGF (10 ng/mL) in NIH 3T3 cells in serum-free culture medium (CTL). Inhibitors were added at indicated concentration 1 h prior to EGF stimulation. To assess cytoskeleton organization, cells were incubated with Alexa Fluor 488 phalloidin to visualize F-actin. Results shown are representative of 3 independent experiments. Corresponding concentration-response curves have been established by counting the percentages of cells with ruffles (scale bars: 10 μm). (B) Immunoblot analysis and associated quantification of RAC-GTP level and total RAC expression in NIH 3T3 cells stimulated by EGF (10 ng/mL, 5 min) and pre-incubated or not (−) with NSC23766, A41, or A415 at 10^−5 M for 1 h (∗∗∗p < 0.001 vs. controls without EGF stimulation, ^###p < 0.001 vs. controls with EGF stimulation) (N > 3). (C) Representative surface plasmon resonance (SPR) sensograms of binding of immobilized RAC1 with increasing concentrations of A41 with or without EDTA (20 mM) (N > 3). (D) Representative in vitro nucleotide exchange catalyzed by the DH-PH of TIAM (10 nM) measured by the binding of fluorescent mant-GTP (1 μM) to RAC1 (0.5 μM, preloaded with GDP) in the presence of indicated concentrations of A41 (out of N = 6). Dotted lines correspond to the experimental curves, and continuous lines represent the fit of experimental points. (E) Kobs and Kmax were determined in each condition (N = 6). (F) Predicted binding modes of A4 to the NSC23766-binding site (left) or the GDP-binding pocket of RAC1 (right). In the NSC23766-binding site of RAC1, the compound A4 (carbon atoms in blue) makes 2 hydrogen bonds (green dotted line) with Ser71 (S71) and 10 hydrophobic interactions (pink dotted line) with Ala3 (A3), Lys5 (K5), Val36 (V36), Trp56 (W56), Tyr64 (Y64), and Leu67 (L67) leading to a docking score of −6.03 kcal/mol. The GDP molecule is shown with fine line. The P loop is shown in yellow, the switch 1 in orange, and the switch 2 in green. […]
Pull-down assay using GST-PBD fusion proteins were performed on NIH-3T3 lysates to assess RAC1 activity as previously described.[63] The precipitated active RAC was subjected to SDS-PAGE and detected by immunoblot with anti-RAC1 antibody (BD biosciences) (dilution 1/1000). […]
screening molecules (10^-5 M) on NIH/3T3 cell adhesion (xCELLingence Real-time cellanalysis, Agilent), migration (CYTOO Mobility plates) and proliferation (xCELLingence Real-time cell analysis, Agilent) .The level of RAC activation is determinedby the detection of RAC-GTP (pull-down assay) in NIH/3T3 cell treated with EGF (10 ng/mL) and the differentmolecules and normalize to the level of RAC activity measuredin the presenceof the reference RAC inhibitor EHT1864.

Row | Compound | inhibitory effect on RAC1 [1] | RAC1 activation (active GTP-bound RAC1) (RAC1)
1 | COc1ccc(OC)c(NC(=O)c2ccc(NC(=O)CCSc3ccc(C)cc3)cc2)c1 [Compound A415] | loss of the inhibitory effect on RAC1 | no significant effect
2 | CCC(=O)Nc1ccc(S(=O)(=O)Nc2cc(OC)ccc2OC)cc1 [Compound A420] | loss of the inhibitory effect on RAC1 | 
